Converted amounts (≈) assume the structure as drawn. Where two headings read alike, the source gives them in different places.
What was measured:
[1] = test system: human microvascular cells; assay: inhibition of endothelial cell cord formation in vitro; type: cell-based; on effect on endothelial cord formation: key: +: Inhibition of angiogenesis; -: No inhibition of angiogenesis; Toxic; *: cell rounding @ 10 µg/ml
From the text: Endothelial cells have the capacity in vitro to form tubular aggregates resembling capillaries in various early stages of formation. This conversion occurs under relatively specific conditions, in which essential growth factors along with an effective substratum are provided. It has been shown that both the interaction of growth factors with the endothelial cell and its attachment to a substratum activate the NHE. The activation of this exchanger is believed to be required for subsequent morphologic transformation of the endothelial cell into a multicellular tubular structure.
To assess the effect of compounds on the cord-like structures formed by human microvascular cells when plated in the presence of VEGF (Vascular Endothelial Growth Factor) and basic fibroblast growth factor on a collagen matrix, a standard cord formation assay was used.

C. albicans = assay: antibiotic activity (MIC); type: cell-based; conditions: Candida albicans
From the text: (§1) Thus, it is possible to achieve an antimicrobial steroid with or without squalamine-like pharmacological activity.

E. coli = assay: antibiotic activity (MIC); type: cell-based; conditions: Escherichia coli
From the text: as §1

P. aerug = assay: antibiotic activity (MIC); type: cell-based
From the text: as §1

S. aureus = assay: antibiotic activity (MIC); type: cell-based; conditions: Staphylococcus aureus
From the text: as §1

[2] = test system: stage 59-60 Xenopus tadpole; assay: Xenopus tadpole assay; conditions: in vivo

SMILES | MIC (C. albicans; C. albicans, read-out: MIC) [mg/L] | MIC (E. coli; E. coli, read-out: MIC) [mg/L] | MIC (P. aerug; P. aerug, read-out: MIC) [mg/L] | MIC (S. aureus; S. aureus, read-out: MIC) [mg/L] | further results
C[C@H](CCC(=O)O)[C@H]1CC[C@H]2[C@@H]3CC[C@@H]4C[C@H](NCCCNCCCCNCCCN)CC[C@]4(C)[C@H]3C[C@H](O)[C@]12C [Compound 449] | 4 (≈ 6.93 µM) | 8 to 16 (≈ 13.9 to 27.7 µM) | 4 (≈ 6.93 µM) | 4 (≈ 6.93 µM) | effect on endothelial cord formation ([1]; 1.0 μg/ml): -
COC(=O)CC[C@@H](C)[C@H]1CC[C@H]2[C@@H]3[C@H](O)C[C@@H]4C[C@H](NCCCNCCCCN)CC[C@]4(C)[C@H]3CC[C@]12C [Compound 356] | 64 (≈ 120 µM) | 32 to 64 (≈ 59.9 to 120 µM) | 64 (≈ 120 µM) | 4 (≈ 7.49 µM) | 
CC(C)CCC[C@@H](C)[C@H]1CC[C@H]2[C@@H]3CC[C@H]4C[C@H](NCCCNCCCCNCCCN)CC[C@]4(C)[C@H]3CC[C@]12C [Compound 354] | 16 to 32 (≈ 27.9 to 55.8 µM) | 64 to 128 (≈ 112 to 223 µM) | 64 (≈ 112 µM) | 8 (≈ 14 µM) | 
COC(=O)CC[C@@H](C)[C@H]1CC[C@H]2[C@@H]3C[C@@H](O)[C@H]4C[C@@H](NCCCNCCCCNCCCN)CC[C@]4(C)[C@H]3CC[C@]12C [Compound 466] | 2 (≈ 3.38 µM) | 32 (≈ 54.2 µM) | 32 (≈ 54.2 µM) | 2 (≈ 3.38 µM) | similarity of pharmacologic activity in tadpole assay [2]: pharmacologic activity similar to that seen for FX 3
C[C@H](CCC(=O)O)[C@H]1CC[C@H]2[C@@H]3C[C@@H](O)[C@H]4C[C@@H](NCCCNCCCCNCCCN)CC[C@]4(C)[C@H]3CC[C@]12C [Compound 467] | 4 (≈ 6.93 µM) | 16 (≈ 27.7 µM) | 8 (≈ 13.9 µM) | 16 (≈ 27.7 µM) | effect on endothelial cord formation ([1]; 1.0 μg/ml): -; effect on endothelial cord formation ([1]; 10.0 μg/ml): -
COC(=O)CC[C@@H](C)[C@H]1CC[C@H]2[C@@H]3C[C@@H](O)[C@H]4C[C@H](NCCN)CC[C@]4(C)[C@H]3CC[C@]12C [Compound 431] | 8 (≈ 17.8 µM) | 32 to 64 (≈ 71.3 to 143 µM) | 128 (≈ 285 µM) | 16 (≈ 35.7 µM) | similarity of pharmacologic activity in tadpole assay [2]: functionally similar to compound 1437
COC(=O)CC[C@@H](C)[C@H]1CC[C@H]2[C@@H]3CC[C@H]4C[C@H](NCCCNCCCCNCCCN)CC[C@]4(C)[C@H]3CC[C@]12C [Compound 458] | 2 (≈ 3.48 µM) | 32 (≈ 55.7 µM) | 64 (≈ 111 µM) | 4 (≈ 6.96 µM) | similarity of pharmacologic activity in tadpole assay [2]: pharmacologic activity similar to that seen for FX 3
CC(C)C(O)CC[C@@H](C)[C@H]1CC[C@H]2[C@@H]3[C@H](O)C[C@H]4C[C@H](NCCCNCCCCN)CC[C@]4(C)[C@H]3CC[C@]12C (stereo partly drawn) [Compound 387, 3α-(1,5,10-Triazadecyl) cholestan-7α,24.xi.-diol] | 64 (≈ 117 µM) | 128 (≈ 234 µM) | 256 (≈ 467 µM) | 16 to 32 (≈ 29.2 to 58.4 µM) | 
CO[C@@H]1[C@H](OC(=O)/C=C/C=C/C=C/C=C/C(=O)O)CC[C@]2(CO2)[C@H]1[C@@]1(C)O[C@@H]1CC=C(C)C [Fumagillin, reference compound] |  |  |  |  | effect on endothelial cord formation ([1]; 0.1 μg/ml): -; effect on endothelial cord formation ([1]; 10.0 μg/ml): +
CC(C)CCC[C@@H](C)[C@H]1CC[C@H]2[C@@H]3[C@H](O)C[C@H]4C[C@H](N)CC[C@]4(C)[C@H]3CC[C@]12C [Compound 1363] | 2 (≈ 4.95 µM) | > 256 | > 256 | 2 (≈ 4.95 µM) | similarity of pharmacologic activity in tadpole assay [2]: potencies comparable to that of Fraction 1
CC(C)CCC[C@@H](C)[C@H]1CC[C@H]2[C@@H]3[C@H](O)C[C@H]4C[C@@H](N)CC[C@]4(C)[C@H]3CC[C@]12C [Compound 1364] | 2 (≈ 4.95 µM) | > 256 | > 256 | 2 (≈ 4.95 µM) | 
C=C(C)C(=O)CC[C@@H](C)[C@H]1CC[C@H]2[C@@H]3[C@H](O)C[C@H]4C[C@@H](NCCCNCCCCN)CC[C@]4(C)[C@H]3CC[C@]12C [Compound 1361] | 4 (≈ 7.35 µM) | 32 (≈ 58.8 µM) | 128 (≈ 235 µM) | 4 (≈ 7.35 µM) | 
COC(=O)CC[C@@H](C)[C@H]1CC[C@H]2[C@@H]3[C@H](O)C[C@H]4C[C@H](NCCCNCCCCN)CC[C@]4(C)[C@H]3CC[C@]12C [Compound 394] | 32 (≈ 59.9 µM) | 64 (≈ 120 µM) | 64 (≈ 120 µM) | 4 (≈ 7.49 µM) | 
CC(C)C(O)CC[C@@H](C)[C@H]1CC[C@H]2[C@@H]3[C@H](O)C[C@H]4C[C@@H](NCCCNCCCCN)CC[C@]4(C)[C@H]3CC[C@]12C (some centres unmarked) [MSI-1232] | 64 (≈ 117 µM) | 32 (≈ 58.4 µM) | 128 (≈ 234 µM) | 4 to 16 (≈ 7.3 to 29.2 µM) | 
COC(=O)CC[C@@H](C)[C@H]1CC[C@H]2[C@@H]3[C@H](O)C[C@@H]4C[C@@H](NCCN)CC[C@]4(C)[C@H]3CC[C@]12C [Compound 409] | 16 (≈ 35.7 µM) | 64 (≈ 143 µM) | 128 (≈ 285 µM) | 32 (≈ 71.3 µM) | similarity of pharmacologic activity in tadpole assay [2]: functionally similar to compound 1437
CC(C)CCC[C@@H](C)[C@H]1CC[C@H]2[C@@H]3CC[C@H]4C[C@H](NCCCNCCCCN)CC[C@]4(C)[C@H]3CC[C@]12C [Compound 304] | 128 (≈ 248 µM) | 128 (≈ 248 µM) | 128 (≈ 248 µM) | 2 to 4 (≈ 3.88 to 7.75 µM) | 

SMILES | MIC (C. albicans; C. albicans, read-out: MIC) [mg/L] | MIC (E. coli; E. coli, read-out: MIC) [mg/L] | MIC (P. aerug; P. aerug, read-out: MIC) [mg/L] | MIC (S. aureus; S. aureus, read-out: MIC) [mg/L] | further results
C[C@H](CCC(=O)O)[C@H]1CC[C@H]2[C@@H]3[C@H](O)C[C@H]4C[C@@H](NCCCNCCCCNCCCN)CC[C@]4(C)[C@H]3CC[C@]12C [Compound 397] | 32 (≈ 55.5 µM) | 32 to 64 (≈ 55.5 to 111 µM) | 16 (≈ 27.7 µM) | 16 (≈ 27.7 µM) | 
COC(=O)CC[C@@H](C)[C@H]1CC[C@H]2[C@@H]3[C@H](O)C[C@@H]4C[C@@H](NCCCNCCCCNCCCN)CC[C@]4(C)[C@H]3CC[C@]12C [Compound 411] | 2 (≈ 3.38 µM) | 64 (≈ 108 µM) | 64 (≈ 108 µM) | 8 (≈ 13.5 µM) | effect on endothelial cord formation ([1]; 0.1 μg/ml): -; effect on endothelial cord formation ([1]; 1.0 μg/ml): -; effect on endothelial cord formation ([1]; 10.0 μg/ml): +; minimal effective concentration ([1]; Homo sapiens, Endothelial cell, Table II, read-out: Minimum Effective Concentration, Cord Formation): 10 µg/mL
COC(=O)CC[C@@H](C)[C@H]1CC[C@H]2[C@@H]3[C@H](O)C[C@@H]4C[C@@H](NCCCNCCCCN)CC[C@]4(C)[C@H]3CC[C@]12C [Compound 355] | 256 (≈ 480 µM) | 256 (≈ 480 µM) | > 256 | 64 (≈ 120 µM) | 
C[C@H](CCC(=O)O)[C@H]1CC[C@H]2[C@@H]3[C@H](O)C[C@H]4C[C@@H](NCCCNCCCCN)CC[C@]4(C)[C@H]3CC[C@]12C [Compound 381] | 128 (≈ 246 µM) | 64 (≈ 123 µM) | 32 (≈ 61.6 µM) | 32 (≈ 61.6 µM) | 
COC(=O)CC[C@@H](C)[C@H]1CC[C@H]2[C@@H]3[C@H](O)C[C@H]4CC(NCCCNCCCCNCCCN)CC[C@]4(C)[C@H]3CC[C@]12C (some centres unmarked) [Compound 395] | 64 (≈ 108 µM) | 32 (≈ 54.2 µM) | 64 (≈ 108 µM) | 4 (≈ 6.77 µM) | 
COC(=O)CC[C@@H](C)[C@H]1CC[C@H]2[C@@H]3[C@H](O)C[C@H]4C[C@@H](NCCCNCCCCN)CC[C@]4(C)[C@H]3CC[C@]12C [Compound 380] | 32 (≈ 59.9 µM) | 32 (≈ 59.9 µM) | 64 (≈ 120 µM) | 4 to 8 (≈ 7.49 to 15 µM) | 
C[C@H](CCC(=O)O)[C@H]1CC[C@H]2[C@@H]3CC[C@@H]4C[C@H](NCCN)CC[C@]4(C)[C@H]3C[C@H](O)[C@]12C [Compound 417] | 32 (≈ 73.6 µM) | 64 (≈ 147 µM) | 128 (≈ 294 µM) | 16 to 32 (≈ 36.8 to 73.6 µM) | 
COC(=O)CC[C@@H](C)[C@H]1CC[C@H]2[C@@H]3CC[C@@H]4C[C@H](NCCCNCCCCNCCCN)CC[C@]4(C)[C@H]3C[C@H](O)[C@]12C [Compound 448] | 8 (≈ 13.5 µM) | 16 (≈ 27.1 µM) | 8 (≈ 13.5 µM) | 2 (≈ 3.38 µM) | 
CC(C)C(O)CC[C@@H](C)[C@H]1CC[C@H]2[C@@H]3[C@H](O)C[C@H]4C[C@@H](NCCCNCCCCN(C)C)CC[C@]4(C)[C@H]3CC[C@]12C (some centres unmarked) [MSI-1239A] |  | 64 (≈ 111 µM) |  | 8 to 16 (≈ 13.9 to 27.8 µM) | MIC (C. albicans): 64 mg/L (≈ 111 µM); MIC (P. aerug): 128 mg/L (≈ 222 µM)
CC(C)CCC[C@@H](C)[C@H]1CC[C@H]2[C@@H]3CC[C@H]4C[C@H](NCCCN5CCCCN=C5N)CC[C@]4(C)[C@H]3CC[C@]12C [Compound 393] | 32 (≈ 59.2 µM) |  | > 256 |  | MIC (E. coli): > 256 mg/L; MIC (S. aureus): 3 mg/L (≈ 5.55 µM)
COC(=O)CC[C@@H](C)[C@H]1CC[C@H]2[C@@H]3[C@H](O)C[C@H]4C[C@@H](NCCCNCCCCNCCCN)CC[C@]4(C)[C@H]3CC[C@]12C [Compound 396] | 16 (≈ 27.1 µM) | 64 (≈ 108 µM) | 128 (≈ 217 µM) | 2 to 4 (≈ 3.38 to 6.77 µM) | 
CC(C)C(CC[C@@H](C)[C@H]1CC[C@H]2[C@@H]3[C@H](O)C[C@H]4C[C@H](NCCCNCCCCN)CC[C@]4(C)[C@H]3CC[C@]12C)OS(=O)(=O)O (some centres unmarked) [Compound 388, 3-Episqualamine] | 16 (≈ 25.5 µM) | 4 to 8 (≈ 6.37 to 12.7 µM) | 16 (≈ 25.5 µM) | 2 to 4 (≈ 3.18 to 6.37 µM) | 
C[C@H](CCC(=O)O)[C@H]1CC[C@H]2[C@@H]3CC[C@H]4C[C@H](NCCCNCCCCN)CC[C@]4(C)[C@H]3CC[C@]12C [Compound 318] | > 256 | 32 (≈ 63.5 µM) | 64 (≈ 127 µM) | 128 (≈ 254 µM) | 
CC(C)CCC[C@@H](C)[C@H]1CC[C@H]2[C@@H]3CC[C@H]4C[C@@H](NCCCNCCCCN)CC[C@]4(C)[C@H]3CC[C@]12C [Compound 303] | 256 (≈ 496 µM) | 128 to 256 (≈ 248 to 496 µM) | 128 (≈ 248 µM) | 8 (≈ 15.5 µM) | 
C[C@H](CCC(=O)O)[C@H]1CC[C@H]2[C@@H]3[C@H](O)C[C@H]4C[C@H](NCCCNCCCCN)CC[C@]4(C)[C@H]3CC[C@]12C [Compound 382] | 32 (≈ 61.6 µM) | 64 (≈ 123 µM) | 32 (≈ 61.6 µM) | 16 (≈ 30.8 µM) | 

Source: US5763430A, “Method of treating a viral infection by administering a steroid compound” (priority 1995, dated 1998)
